Results: paper PMC3847131, “Functional characterization of a serine-threonine protein kinase from Bambusa balcooa that implicates in cellulose overproduction and superior quality fiber formation” (BMC Plant Biology, 2013)

Target: T1, BbKst-kinase (serine/threonine protein kinase BbKst)
T1 construct: kinase domain (from 2233 to 3342 bp of cDNA), His-fused, expressed in E. coli BL21
Assay: in vitro […] kinase assay with purified kinase domain
Type: biochemical, Bambusa balcooa

O=c1c(O)c(-c2ccc(O)c(O)c2)oc2cc(O)cc(O)c12 [quercetin]
IC50: 7 nM
